Assay: Phantom calibration: CEST MTRasym spectra of I45DC-(Glu)2 in PBS
Format: physicochemical
Details: pH 5.4 to 7.5
Experimental: I45DC-(Glu)2 was dissolved in PBS with conc. of 50 mM, 25 mM, 12 mM and 6.25 mM and pH from 5.4 to 7.5.
Images were taken on Bruker 11.7T scanners, using a RARE sequence with CW saturation pulse of B1=5.9 uT, Tsat=3 s. For phantoms, saturation frequency incremented every 0.3 ppm from −15 to 15 ppm with TR/TE=6000 ms/17 ms, matrix size=64×48. For in vivo, an axial slice across both kidney carlyx was chosen with thickness of 1.5 mm CEST images with saturation frequencies of [±7.8 ppm, ±7.5 ppm, ±7.2 ppm] and [±4.8 ppm, ±4.5 ppm, ±4.2 ppm] for pH reference were acquired repeatedly every 10 min pre- and post-injection. Image parameters are similar as for phantom except for TR/TE=5 s/15 ms, and CEST contrast was quantified by
MTRasym=(S−Δω−S+Δω)/S−Δω.
CEST MTRasym spectra of I45DC-(Glu)2 (FIG. 5A) show 2 broad peaks centered at 7.5 ppm and 2.4 ppm, with the 7.5 ppm peak increasing as pH increases, while the 2.5 ppm-5 ppm part remains relatively constant. […] The linearity of the ratio using saturation B1=5.9 uT is better than B1=3.6 uT partially due to a relative fast exchange rate of the heterocyclic NH (kex=˜4000).

With `O=C[C@H](CCC(=O)O)NNC(=O)c1nc[nH]c1C(=O)NN[C@H](C=O)CCC(=O)O` [I45DC-(Glu)2, 4,5-bis[(Glu)carbonyl]-1H-imidazole] the “ratio of the 7.5 ppm contrast to contrast at 4.8 ppm” value (6.25-50 mM) was “dependent on pH” and the “exchange rate of the heterocyclic NH (kex)” value was ~4000.

Reference: patent publication US20160075667A1, “COMPOSITIONS AND METHODS FOR CHEMICAL EXCHANGE SATURATION TRANSFER (CEST) MAGNETIC RESONANCE IMAGING (MRI)” (The Johns Hopkins University, priority 2013, published 2016)
